Measurements published in patent US20230029066A1, “CRYSTAL FORMS OF FUSED RING COMPOUND, AND COMPOSITION THEREOF, PREPARATION METHOD THEREFOR AND APPLICATION THEREOF” (HANGZHOU YUSHENG MEDICAL TECHNOLOGY CO. LTD, priority 2019, published 2023).
Converted amounts (≈) assume the structure as drawn. “Also recorded” adds a separate entry of the source. Like-named read-outs stand apart in the source and are kept apart here.

Key:
Type in all cases: physicochemical
[1] = Effect of crystal form on stability, high humidity test for 5 days (XRD); conditions: room temperature, unsealed, desiccator with saturated potassium nitrate
Description: Evaluation on effect of crystal form on stability—high humidity test for 5 days
(§1) The amorphous form obtained in Example 11, crystal form IV obtained in Example 3, crystal form I obtained in Example 6, and crystal form II obtained in Example 8 were each taken 30 mg, in triplicate, put into a penicillin bottle, which is transferred, without being sealed, at room temperature into a desiccator with saturated potassium nitrate at the bottom, and the samples were taken after 5 days and tested by XRD.

[2] = Effect of crystal form on stability, high temperature test for 5 days (XRD); conditions: 60° C., unsealed
Description: Evaluation on effect of crystal form on stability—high temperature test for 5 days
as §1, with “to QG 2003 ba incubation and drying oven, of which the” for “at room”, “was adjusted to 60° C. The” for “into a desiccator with saturated potassium nitrate at the bottom, and the”

[3] = Accelerated stability test for 30 days (XRD); conditions: 40° C., sealed bags
Description: Evaluation for accelerated stability of crystal forms I, II and IV
Crystal form IV obtained in Example 3, crystal form I obtained in Example 6, and crystal form II obtained in Example 8 were each taken 30 mg, in triplicate, put into sealed bags, which is transferred into BPN-80CH CO2 incubator, of which the temperature was set at 40° C. The samples were taken after 30 days and tested by XRD.

[4] = Solubility of crystal forms in different environments
Text: The solubilities (μg/mL) of crystal form I in different environments are shown in […]

[5] = Stability in solution within 24 hours
[6] = Simulated fasting intestinal fluid (FaSSIF), R.T. (25° C.)
[7] = Simulated gastric fluid (SGF), 37° C.
[8] = Simulated gastric fluid (SGF), R.T. (25° C.)
[9] = Simulated gastric fluid (SGF), Ultrasonic
[10] = Simulated postprandial intestinal fluid (FeSSIF), 37° C.
[11] = Simulated postprandial intestinal fluid (FeSSIF), R.T. (25° C.)
[12] = Simulated postprandial intestinal fluid (FeSSIF), Ultrasonic
[13] = pH 1.2 hydrochloric acid solution, 37° C.
[14] = pH 1.2 hydrochloric acid solution, R.T. (25° C.)
[15] = pH 1.2 hydrochloric acid solution, Ultrasonic
[16] = pH 4.5 acetic acid-sodium acetate solution, 75° C.
[17] = pH 4.5 acetic acid-sodium acetate solution, R.T. (25° C.)
[18] = Simulated fasting intestinal fluid (FaSSIF)
[19] = Simulated postprandial intestinal fluid (FeSSIF)
[20] = pH 1.2 hydrochloric acid solution
[21] = pH 4.5 acetic acid-sodium acetate solution

| solid-form stability, change of XRD after high humidity test [1] | solid-form stability, change of XRD after high temperature test [2] | solid-form stability, change of XRD after accelerated stability test [3] | solubility [4, 6] [µg/mL] | solubility [4, 7] [µg/mL] | solubility [4, 8] [µg/mL] | solubility [4, 9] [µg/mL] | solubility [4, 10] [µg/mL] | solubility [4, 11] [µg/mL] | solubility [4, 12] [µg/mL] | solubility [4, 13] [µg/mL] | solubility [4, 14] [µg/mL] | solubility [4, 15] [µg/mL] | solubility [4, 16] [µg/mL] | solubility [4, 17] [µg/mL] | Stability [5, 18] | Stability ([5]; Simulated gastric fluid (SGF)) | Stability [5, 19] | Stability ([5]; Water) | Stability [5, 20] | Compound | also measured |
| --- | --- | --- | --- | --- | --- | --- | --- | --- | --- | --- | --- | --- | --- | --- | --- | --- | --- | --- | --- | --- | --- |
| barely no change; also recorded: stable | barely no change; also recorded: stable | barely no change; also recorded: stable |  |  |  |  |  |  |  |  |  |  |  |  |  |  |  |  |  | COc1ncc(-c2ccc3ncc(C#N)c(N4CCOC[C@H]4C)c3c2)cc1NS(C)(=O)=O [crystal form II, (R)-N-(5-(3-cyano-4-(3-methylmorpholinyl)quinolin-6-yl)-2-methoxypyridin-3-yl)methanesulfonamide] |  |
| barely no change; also recorded: stable | barely no change; also recorded: stable | barely no change; also recorded: stable | 6.05 (≈ 13.3 µM) | 655.37 (≈ 1450 µM) | 533.36 (≈ 1180 µM) | 570.49 (≈ 1260 µM) | 26.02 (≈ 57.4 µM) | 31.70 (≈ 69.9 µM) | 29.70 (≈ 65.5 µM) | 1431.40 (≈ 3160 µM) | 1283.50 (≈ 2830 µM) | 1289.40 (≈ 2840 µM) | 3.45 (≈ 7.61 µM) | 2.75 (≈ 6.06 µM) | Stable within | Stable within | Stable within | Stable within | Stable within | COc1ncc(-c2ccc3ncc(C#N)c(N4CCOC[C@H]4C)c3c2)cc1NS(C)(=O)=O [crystal form IV, (R)-N-(5-(3-cyano-4-(3-methylmorpholinyl)quinolin-6-yl)-2-methoxypyridin-3-yl)methanesulfonamide] | solubility ([4]; Simulated fasting intestinal fluid (FaSSIF), 37° C.): 4.70 µg/mL (≈ 10.4 µM); solubility ([4]; Simulated fasting intestinal fluid (FaSSIF), 75° C.): 5.12 µg/mL (≈ 11.3 µM); solubility ([4]; Simulated fasting intestinal fluid (FaSSIF), Ultrasonic): 5.43 µg/mL (≈ 12 µM); solubility ([4]; Simulated gastric fluid (SGF), 75° C.): 766.58 µg/mL (≈ 1690 µM); solubility ([4]; Simulated postprandial intestinal fluid (FeSSIF), 75° C.): 28.48 µg/mL (≈ 62.8 µM); solubility ([4]; Water, 37° C.): 2.39 µg/mL (≈ 5.27 µM); solubility ([4]; Water, 75° C.): 2.98 µg/mL (≈ 6.57 µM); solubility ([4]; Water, R.T. (25° C.)): 2.68 µg/mL (≈ 5.91 µM); solubility ([4]; Water, Ultrasonic): 2.96 µg/mL (≈ 6.53 µM); solubility ([4]; pH 1.2 hydrochloric acid solution, 75° C.): 1516.50 µg/mL (≈ 3340 µM); solubility ([4]; pH 4.5 acetic acid-sodium acetate solution, 37° C.): 3.04 µg/mL (≈ 6.7 µM); solubility ([4]; pH 4.5 acetic acid-sodium acetate solution, Ultrasonic): 3.04 µg/mL (≈ 6.7 µM); solubility ([4]; pH 6.8 PBS solution, 37° C.): 2.18 µg/mL (≈ 4.81 µM); solubility ([4]; pH 6.8 PBS solution, 75° C.): 2.62 µg/mL (≈ 5.78 µM); solubility ([4]; pH 6.8 PBS solution, R.T. (25° C.)): 2.12 µg/mL (≈ 4.67 µM); solubility ([4]; pH 6.8 PBS solution, Ultrasonic): 2.48 µg/mL (≈ 5.47 µM); Stability [5, 21]: Stable within; Stability ([5]; pH 6.8 PBS solution): Stable within |
| barely no change | barely no change | barely no change; also recorded: stable | 2.07 (≈ 4.56 µM) | 167.38 (≈ 369 µM) | 99.81 (≈ 220 µM) | 119.65 (≈ 264 µM) | 11.35 (≈ 25 µM) | 8.09 (≈ 17.8 µM) | 9.46 (≈ 20.9 µM) | 404.30 (≈ 891 µM) | 275.20 (≈ 607 µM) | 294.60 (≈ 650 µM) | 1.55 (≈ 3.42 µM) | 1.29 (≈ 2.84 µM) | Stable within | Stable within | Stable within | Stable within | Stable within | COc1ncc(-c2ccc3ncc(C#N)c(N4CCOC[C@H]4C)c3c2)cc1NS(C)(=O)=O [crystal form I, (R)-N-(5-(3-cyano-4-(3-methylmorpholinyl)quinolin-6-yl)-2-methoxypyridin-3-yl)methanesulfonamide] | solid-form stability, change of XRD after high humidity test ([1]; listed as Crystal form I): stable; solubility ([4]; pH 1.2 hydrochloric acid solution, 75 °C, pH 1.2, simulated gastric fluid, thermodynamic from solid, pH 1.2 hydrochloric acid solution, 75° C., read-out: solubility): 868 µg/mL (≈ 1910 µM); solubility ([4]; pH 4.5 acetic acid-sodium acetate solution, 37 °C, pH 4.5, aqueous buffer, thermodynamic from solid, pH 4.5 acetic acid-sodium acetate solution, 37° C., read-out: solubility): 1.67 µg/mL (≈ 3.68 µM); solubility ([4]; pH 4.5 acetic acid-sodium acetate solution, pH 4.5, aqueous buffer, thermodynamic from solid, pH 4.5 acetic acid-sodium acetate solution, Ultrasonic, read-out: solubility): 1.56 µg/mL (≈ 3.44 µM); solubility ([4]; pH 6.8 PBS solution, 25 °C, pH 6.8, aqueous buffer, thermodynamic from solid, pH 6.8 PBS solution, R.T. (25° C.), read-out: solubility): 3.58 µg/mL (≈ 7.89 µM); solubility ([4]; pH 6.8 PBS solution, 37 °C, pH 6.8, aqueous buffer, thermodynamic from solid, pH 6.8 PBS solution, 37° C., read-out: solubility): 1.51 µg/mL (≈ 3.33 µM); solubility ([4]; pH 6.8 PBS solution, 75 °C, pH 6.8, aqueous buffer, thermodynamic from solid, pH 6.8 PBS solution, 75° C., read-out: solubility): 1.41 µg/mL (≈ 3.11 µM); solubility ([4]; pH 6.8 PBS solution, pH 6.8, aqueous buffer, thermodynamic from solid, pH 6.8 PBS solution, Ultrasonic, read-out: solubility): 2.79 µg/mL (≈ 6.15 µM); solubility ([4]; simulated fasting intestinal fluid (FaSSIF), 37 °C, fassif, thermodynamic from solid, Simulated fasting intestinal fluid (FaSSIF), 37° C., read-out: solubility): 2.87 µg/mL (≈ 6.33 µM); solubility ([4]; simulated fasting intestinal fluid (FaSSIF), 75 °C, fassif, thermodynamic from solid, Simulated fasting intestinal fluid (FaSSIF), 75° C., read-out: solubility): 8.64 µg/mL (≈ 19.1 µM); solubility ([4]; simulated fasting intestinal fluid (FaSSIF), fassif, thermodynamic from solid, Simulated fasting intestinal fluid (FaSSIF), Ultrasonic, read-out: solubility): 4.76 µg/mL (≈ 10.5 µM); solubility ([4]; simulated gastric fluid (SGF), 75 °C, simulated gastric fluid, thermodynamic from solid, Simulated gastric fluid (SGF), 75° C., read-out: solubility): 432 µg/mL (≈ 952 µM); solubility ([4]; simulated postprandial intestinal fluid (FeSSIF), 75 °C, fessif, thermodynamic from solid, Simulated postprandial intestinal fluid (FeSSIF), 75° C., read-out: solubility): 18.9 µg/mL (≈ 41.7 µM); solubility ([4]; water, 25 °C, water, thermodynamic from solid, Water, R.T. (25° C.), read-out: solubility): 3.84 µg/mL (≈ 8.47 µM); solubility ([4]; water, 37 °C, water, thermodynamic from solid, Water, 37° C., read-out: solubility): 3.87 µg/mL (≈ 8.53 µM); solubility ([4]; water, 75 °C, water, thermodynamic from solid, Water, 75° C., read-out: solubility): 2.24 µg/mL (≈ 4.94 µM); solubility ([4]; water, thermodynamic from solid, Water, Ultrasonic, read-out: solubility): 4.63 µg/mL (≈ 10.2 µM); solid-form stability, change of XRD after high temperature test ([2]; listed as Crystal form I): stable; Stability [5, 21]: Stable within; Stability ([5]; pH 6.8 PBS solution): Stable within |

| Compound | solid-form stability, change of XRD after high humidity test [1] | solid-form stability, change of XRD after high temperature test [2] | solid-form stability, change of XRD after accelerated stability test [3] | solubility [4, 6] [µg/mL] | solubility [4, 7] [µg/mL] | solubility [4, 8] [µg/mL] | solubility [4, 9] [µg/mL] | solubility [4, 10] [µg/mL] | solubility [4, 11] [µg/mL] | solubility [4, 12] [µg/mL] | solubility [4, 13] [µg/mL] | solubility [4, 14] [µg/mL] | solubility [4, 15] [µg/mL] | solubility [4, 16] [µg/mL] | solubility [4, 17] [µg/mL] | Stability [5, 18] | Stability ([5]; Simulated gastric fluid (SGF)) | Stability [5, 19] | Stability ([5]; Water) | Stability [5, 20] | also measured |
| --- | --- | --- | --- | --- | --- | --- | --- | --- | --- | --- | --- | --- | --- | --- | --- | --- | --- | --- | --- | --- | --- |
| COc1ncc(-c2ccc3ncc(C#N)c(N4CCOC[C@H]4C)c3c2)cc1NS(C)(=O)=O [amorphous form, (R)-N-(5-(3-cyano-4-(3-methylmorpholinyl)quinolin-6-yl)-2-methoxypyridin-3-yl)methanesulfonamide, reference compound] | obvious crystal transformation; also recorded: significant crystal transformation | obvious crystal transformation; also recorded: significant crystal transformation |  |  |  |  |  |  |  |  |  |  |  |  |  |  |  |  |  |  |  |
